target: T1, human 5HT1A-serotonergic receptor (Homo sapiens, UniProt P08908); assay: Radioligand binding to recombinant 5-HT1A receptor ([3H]8-OH-DPAT, HeLa cell membranes); conditions: 1 nM [3H]8-OH-DPAT; Ki from IC50 by the Cheng equation; read-out: Ki (nM), binding affinity for 5HT1A receptor
T1 construct: expressed in transfected cells; host or cells: HeLa (human), stably transfected; membranes
T1 sequence (P08908 1-422): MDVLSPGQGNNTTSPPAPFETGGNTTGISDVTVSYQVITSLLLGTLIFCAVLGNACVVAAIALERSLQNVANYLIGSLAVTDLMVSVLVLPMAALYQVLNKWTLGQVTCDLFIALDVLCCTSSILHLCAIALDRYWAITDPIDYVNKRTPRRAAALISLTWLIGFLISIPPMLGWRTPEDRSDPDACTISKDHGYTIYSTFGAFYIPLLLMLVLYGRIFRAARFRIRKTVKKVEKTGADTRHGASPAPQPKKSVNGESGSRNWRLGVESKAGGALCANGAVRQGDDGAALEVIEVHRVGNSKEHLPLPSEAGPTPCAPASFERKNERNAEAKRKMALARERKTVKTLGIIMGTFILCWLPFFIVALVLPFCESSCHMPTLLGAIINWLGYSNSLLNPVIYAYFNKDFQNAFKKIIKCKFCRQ
Method: Genomic clone G-21 encoding the human 5HT1A-serotonergic receptor was stably transfected in a human cell line (HeLa). HeLa cells were grown as monolayers in Dulbecco's modified Eagle medium (DMEM), containing 10% fetal bovine serum and gentamycin (100 μg/ml) at 37° C. in a humidified atmosphere of 5% CO2 and air. The cells were detached from the growth flask at 95% confluence by a cell scraper and were lysed in cold 5 mM Tris and 5 mM EDTA buffer (pH 7.4). The homogenates were centrifuged at 40000×g×20 minutes and the pellets were resuspended in a small volume of cold 5 mM Tris and 5 mM EDTA buffer (pH 7.4) and immediately frozen and stored at −70° C. until use. On the day of experiment, the cell membranes were resuspended in incubation buffer: 50 mM Tris (pH 7.4), 2.5 mM MgCl2, 10 μM pargyline (Fargin et al., Nature 335, 358-360, 1988). The membranes were incubated in a final volume of 0.32 ml for 30 minutes at 30° C. with 1 nM [^3H]8-OH-DPAT, in the absence or presence of the test compounds. Non-specific binding was determined in the presence of 10 μM 5-HT. Incubation was stopped by addition of cold Tris buffer and rapid filtration through UniFilter GF/C plate.
The affinity of the tested compounds was evaluated as inhibition of specific binding of the radioligand to 5-HT1A receptor (IC50) by using the non-linear curve-fitting program Allfit (De Lean et al., Am. J. Physiol. 235, E97-E102 (1978)). The IC50 value was converted to an affinity constant (Ki) by the equation of Cheng et al., Biochem. Pharmacol. 22, 3099-3108 (1973).

Row | SMILES | Ki [nM]
1 | CON=C(C)C(CCN1CCN(c2cccc3c2OCCO3)CC1)c1ccccc1F (mixture of isomers) [Example 28, 5-[4-(2,3-Dihydrobenzo[1,4]dioxin-5-yl)piperazin-1-yl]-3-(2-fluorophenyl)-pentan-2-one O-methyloxime] | 1.33
2 | COc1ccccc1N1CCN(CC[C@@H](c2ccccc2F)[C@H](N)C2CCCCC2)CC1 (racemic) [Example 5a, (RS,SR)-1-Cyclohexyl-2-(2-fluorophenyl)-4-[4-(2-methoxyphenyl)-piperazin-1-yl]butylamine] | 0.48
3 | COc1ccccc1N1CCN(CC[C@H](c2ccccc2F)[C@H](N)C2CCCCC2)CC1 (racemic) [Example 5b, (RS,RS)-1-Cyclohexyl-2-(2-fluorophenyl)-4-[4-(2-methoxyphenyl)-piperazin-1-yl]butylamine] | 0.77
4 | COc1ccccc1N1CCN(CC[C@H](c2ccccc2F)[C@H](NC(C)=O)C2CCCCC2)CC1 (racemic) [Example 9, N-{(RS,RS)-1-Cyclohexyl-2-(2-fluorophenyl)-4-[4-(2-methoxyphenyl)-piperazin-1-yl]butyl}acetamide] | 1.4
5 | COc1ccccc1N1CCN(CC[C@@H](c2ccccc2F)[C@H](NC(C)C)C2CCCCC2)CC1 (racemic) [Example 12, (RS,SR)-{1-Cyclohexyl-2-(2-fluorophenyl)-4-[4-(2-methoxyphenyl)-piperazin-1-yl]butyl}isopropylamine] | 0.99
6 | COc1ccccc1N1CCN(CC[C@@H](c2ccccc2F)[C@H](NCc2ccco2)C2CCCCC2)CC1 (racemic) [Example 14, {(RS,SR)-1-Cyclohexyl-2-(2-fluorophenyl)-4-[4-(2-methoxyphenyl)-piperazin-1-yl]butyl}furan-2-ylmethylamine] | 0.42
7 | COc1ccccc1N1CCN(CC[C@@H](c2ccccc2F)[C@H](NC(N)=O)C2CCCCC2)CC1 (racemic) [Example 18, {(RS,SR)-1-Cyclohexyl-2-(2-fluorophenyl)-4-[4-(2-methoxyphenyl)-piperazin-1-yl]butyl}urea] | 1.84
8 | CNC(=O)N[C@H](C1CCCCC1)[C@@H](CCN1CCN(c2ccccc2OC)CC1)c1ccccc1F (racemic) [Example 19, 1-{(RS,SR)-1-Cyclohexyl-2-(2-fluorophenyl)-4-[4-(2-methoxyphenyl)-piperazin-1-yl]butyl}-3-methylurea] | 2.09
9 | COc1ccccc1N1CCN(CC[C@@H](c2ccccc2F)[C@@H](C2CCCCC2)N(C)C(=O)N(C)C)CC1 (racemic) [Example 22, 1-{(RS,SR)-1-Cyclohexyl-2-(2-fluorophenyl)-4-[4-(2-methoxyphenyl)-piperazin-1-yl]butyl}-1,3,3-trimethylurea] | 1.24
10 | CNC(=S)N[C@H](C1CCCCC1)[C@@H](CCN1CCN(c2ccccc2OC)CC1)c1ccccc1F (racemic) [Example 23, 1-{(RS,SR)-1-Cyclohexyl-2-(2-fluorophenyl)-4-[4-(2-methoxyphenyl)-piperazin-1-yl]butyl}-3-methylthiourea] | 0.58
11 | CO/N=C(\C1CCCCC1)C(CCN1CCN(c2cccc3c2OCCO3)CC1)c1ccccc1C#N (racemic) [Example 26, (R,S)-2-{1′-{Cyclohexyl-[(E)-methoxyimino]methyl}-3-[4-(2,3-dihydrobenzo[1,4]dioxin-5-yl)-piperazin-1-yl]propyl}benzonitrile] | 0.38
12 | N[C@H](C1CCCCC1)[C@@H](CCN1CCN(c2cccc3c2OCCO3)CC1)c1ccccc1F (racemic) [Example 38, (RS,SR)-1-Cyclohexyl-4-[4-(2,3-dihydrobenzo[1,4]dioxin-5-yl)-piperazin-1-yl]-2-(2-fluorophenyl)butylamine] | 0.8
13 | COc1ccccc1N1CCN(CC[C@@H](c2ccccc2F)[C@H](N)C2CCCCC2)CC1 (single isomer, unassigned) [Example 5aA, (1R,2S) or (1S,2R)-1-Cyclohexyl-2-(2-fluorophenyl)-4-[4-(2-methoxyphenyl)piperazin-1-yl]butylamine] | 0.6
14 | COc1ccccc1N1CCN(CC[C@H](c2ccccc2F)[C@@H](N)C2CCCCC2)CC1 (single isomer, unassigned) [Example 5aB, (1S,2R) or (1R,2S)-1-Cyclohexyl-2-(2-fluorophenyl)-4-[4-(2-methoxyphenyl)piperazin-1-yl]butylamine] | 1.2
15 | COc1ccccc1N1CCN(CC[C@H](c2ccccc2F)[C@@H](NC(=S)N(C)C)C2CCCCC2)CC1 (single isomer, unassigned) [Example 24B, 3-{(1S,2R) or (1R,2S)-1-Cyclohexyl-2-(2-fluorophenyl)-4-[4-(2-methoxyphenyl)piperazin-1-yl]butyl}-1,1-dimethylthiourea] | 4.2
16 | CON=C(C1CCCCC1)C(CCN1CCN(c2ccccc2OC)CC1)c1ccccc1F (stereo not drawn) [Example 2, 1-Cyclohexyl-2-(2-fluorophenyl)-4-[4-(2-methoxyphenyl)-piperazin-1-yl]butan-1-one O-methyloxime] | 1.9
17 | COc1ccccc1N1CCN(CCC(C(=NOC(C)=O)C2CCCCC2)c2ccccc2F)CC1 (stereo not drawn) [Example 3, 1-Cyclohexyl-2-(2-fluorophenyl)-4-[4-(2-methoxyphenyl)-piperazin-1-yl]butan-1-one O-acetyl oxime] | 0.87
18 | COc1ccccc1N1CCN(CCC(c2ccccc2F)C(NC=O)C2CCCCC2)CC1 (stereo not drawn) [Example 6, N-{1-Cyclohexyl-2-(2-fluorophenyl)-4-[4-(2-methoxyphenyl)-piperazin-1-yl]butyl}formamide] | 1.2
19 | CNC(C1CCCCC1)C(CCN1CCN(c2ccccc2OC)CC1)c1ccccc1F (stereo not drawn) [Example 10a] | 0.49
20 | CNC(C1CCCCC1)C(CCN1CCN(c2ccccc2OC)CC1)c1ccccc1F (stereo not drawn) [Example 10b] | 1.41
21 | COc1ccccc1N1CCN(CCC(c2ccccc2F)C(C2CCCCC2)N(Cc2ccco2)Cc2ccco2)CC1 (stereo not drawn) [Example 15] | 7.28
22 | COc1ccccc1N1CCN(CCC(c2ccccc2F)C(NC(=O)N2CCOCC2)C2CCCCC2)CC1 (stereo not drawn) [Example 20, 1-{(RS,SR)-1-Cyclohexyl-2-(2-fluorophenyl)-4-[4-(2-methoxyphenyl)-piperazin-1-yl]butyl}morpholine-4-carboxamide] | 2.9
23 | CC(=NO)C(CCN1CCN(c2cccc3c2OCCO3)CC1)c1ccccc1F (stereo not drawn) [Example 27, E(Z)-5-[4-(2,3-Dihydrobenzo[1,4]dioxin-5-yl)piperazin-1-yl]-3-(2-fluorophenyl)pentan-2-one oxime] | 1.77
24 | CC(=NO)C(CCN1CCN(c2ccccc2OCC(F)(F)F)CC1)c1ccccc1F (stereo not drawn) [Example 31, E(Z)-3-(2-Fluorophenyl)-5-{4-[2-(2,2,2-trifluoroethoxy)phenyl]-piperazin-1-yl}pentan-2-one oxime] | 6.03
25 | CON=C(C)C(CCN1CCN(c2ccccc2OCC(F)(F)F)CC1)c1ccccc1F (stereo not drawn) [Example 32, E(Z)-3-(2-Fluorophenyl)-5-{4-[2-(2,2,2-trifluoroethoxy)phenyl]-piperazin-1-yl}pentan-2-one O-methyloxime] | 2.24
26 | O=CNC(C1CCCCC1)C(CCN1CCN(c2cccc3c2OCCO3)CC1)c1ccccc1F (stereo not drawn) [Example 37, N-[1-Cyclohexyl-4-[4-(2,3-dihydrobenzo[1,4]dioxin-5-yl)piperazin-1-yl]-2-(2-fluorophenyl)butyl]formamide] | 0.8
27 | CNC(C1CCCCC1)C(CCN1CCN(c2cccc3c2OCCO3)CC1)c1ccccc1F (stereo not drawn) [Example 39, 1-Cyclohexyl-4-[4-(2,3-dihydrobenzo[1,4]dioxin-5-yl)piperazin-1-yl]-2-(2-fluorophenyl)butylmethylamine] | 0.3
28 | COc1ccc(Br)c(CN2CCN(CCC(c3ccccc3F)C(NC=O)C3CCCCC3)CC2)c1 (stereo not drawn) [Example 42, N-[4-[4-(2-Bromo-5-methoxybenzyl)piperazin-1-yl]-1-cyclohexyl-2-(2-fluorophenyl)butyl]formamide] | 0.5
29 | COc1ccc(Br)c(CN2CCN(CCC(c3ccccc3F)C(N)C3CCCCC3)CC2)c1 (stereo not drawn) [Example 43, 4-[4-(2-Bromo-5-methoxybenzyl)piperazin-1-yl]-1-cyclohexyl-2-(2-fluorophenyl)butylamine] | 0.3
30 | CNC(C1CCCCC1)C(CCN1CCN(Cc2cc(OC)ccc2Br)CC1)c1ccccc1F (stereo not drawn) [Example 44, 4-[4-(2-Bromo-5-methoxybenzyl)piperazin-1-yl]-1-cyclohexyl-2-(2-fluorophenyl)butylmethylamine] | 0.4

Reference: patent US20070270436A1, “NOVEL AMINO- AND IMINO-ALKYLPIPERAZINES” (Recordati Ireland Limited, priority 2006, published 2007)
